The target in one data set is T1, His-PPARγ LBD (Homo sapiens, UniProt P37231).
T1 sequence (P37231 203-477 isoform P37231-2): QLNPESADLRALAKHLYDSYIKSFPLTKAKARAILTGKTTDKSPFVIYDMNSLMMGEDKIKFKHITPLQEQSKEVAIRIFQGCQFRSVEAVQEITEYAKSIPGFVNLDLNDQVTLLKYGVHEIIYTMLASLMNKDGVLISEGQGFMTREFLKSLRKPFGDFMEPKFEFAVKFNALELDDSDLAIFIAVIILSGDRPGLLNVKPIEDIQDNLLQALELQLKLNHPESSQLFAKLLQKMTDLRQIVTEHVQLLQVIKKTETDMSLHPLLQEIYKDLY
The format is biochemical. The settings on record: TRAP220 coactivator peptide.

For data set [1] the following is noted: limited use of MRL20 concentrations to 30 μM in assays; cited from earlier work.
A further data set deals with T2, full-length PPARγ (Homo sapiens, UniProt P37231).
T2 sequence (P37231 1-505): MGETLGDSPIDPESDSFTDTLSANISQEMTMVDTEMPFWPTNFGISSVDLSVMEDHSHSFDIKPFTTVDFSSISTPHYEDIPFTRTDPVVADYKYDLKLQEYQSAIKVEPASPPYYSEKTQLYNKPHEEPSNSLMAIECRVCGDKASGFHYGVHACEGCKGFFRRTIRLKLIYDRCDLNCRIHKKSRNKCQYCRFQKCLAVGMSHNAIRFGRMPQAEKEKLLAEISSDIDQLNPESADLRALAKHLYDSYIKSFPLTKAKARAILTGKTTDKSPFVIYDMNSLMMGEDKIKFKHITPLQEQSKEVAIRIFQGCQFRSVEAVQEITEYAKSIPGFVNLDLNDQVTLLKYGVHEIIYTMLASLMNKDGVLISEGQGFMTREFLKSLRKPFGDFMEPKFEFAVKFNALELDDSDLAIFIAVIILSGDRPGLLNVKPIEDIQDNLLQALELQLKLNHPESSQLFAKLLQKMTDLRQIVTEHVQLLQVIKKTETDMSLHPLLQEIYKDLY
The data set is described as follows: Full-length PPARγ/5xPPRE-luciferase reporter assay in HEK293T cells. The format is cell-based. The following applies: covalent analog ± 5 μM MRL20.

This is an account of results in publication PMC5652320 (ACS chemical biology, 2017).

Each structure is given as a SMILES string.

As to `O=C(Nc1ccccc1)c1cc([N+](=O)[O-])ccc1Cl` [GW9662], the “TR-FRET response to rosiglitazone with covalent antagonist-bound PPARγ LBD” value at His-PPARγ LBD (rosiglitazone titration, endpoint 300 μM) is reported as “lower but not blocked”.
For the compound `COc1ccc(C(=O)n2c(C)c(Cc3ccccc3O[C@@H](C)C(=O)O)c3cc(OC(F)(F)F)ccc32)cc1` [MRL20], the Solubility entry in data set [1] is on record as “solubility issues”.
Take `COc1ccc2nccc(NC(=O)c3cc([N+](=O)[O-])ccc3Cl)c2c1` [compound 22]: the “Inhibition of allosteric activation of full-length PPARγ by MRL20” value on full-length PPARγ was “inhibition of allosteric PPARγ activation”. For the same compound, the “Effect of covalent antagonist on binding of DHA to PPARγ” value on His-PPARγ LBD (DHA dose response and 30 μM endpoint) is “reduced binding of DHA to PPARγ better than GW9662 and T0070907”.
